Assay [1] has as its system VH125.NOD mice. The assay is described as follows: T1D disease progression in VH125.NOD mice on idelalisib chow. The assay is classed as in vivo, mouse. The settings on record: female VH125.NOD mice, vs vehicle control chow. An excerpt: Except where otherwise indicated, 6-16 week old mice were used in all experiments. Both male and female mice were used, but experiments were sex matched and both sexes gave identical results, with the exception of only female mice being used in the VH125.NOD experiments as female mice develop accelerated disease. hCD20-TamCre animals (Khalil, et al. Science 336: 1178-81) were intercrossed with mice carrying the rosa26-flox-STOP-YFP allele (Srinivas, et al., BMC Dev. Biol. 1:4), generating mice in which YFP is expressed in B cells upon Cre activation. These mice were crossed with Ars/A1 (Benschop, et al., Immunity 14: 33-43) transgenic mice to generate hCD20-TamCre×rosa26-flox-STOP-YFP×Ars/A1 mice. B cells from these mice will be referred to as WT Ars/A1. […]
Diet dose (DD) is calculated by multiplying the single daily dose (SD) by the body weight of a mouse (BW) and dividing that by the daily food intake (FI) [DD=(SD×BW)/FI]. […]
To test this possibility, immediately post-weaning, female VH125.NOD mice were placed on vehicle control chow to allow habituation to the diet. […] Disease progression was monitored based on blood glucose levels and visible signs of disease (i.e., hunching, scruffy fur, excessive urination).

For assay [2], the system named is BTK. The assay is described as follows: phosphorylated signaling intermediaries after BCR stimulation: BTK. The assay is classed as cell-based, mouse. To be noted: all doses of inhibitor (15, 60, 490 nM), preincubation. The procedure: Cells are then washed 2× in serum free IMDM, and stimulated with 5 μg/ml of F(ab′)2 rabbit anti-mouse anti-IgG (H&L; Invitrogen) or 10 μg/ml anti-CD3-biotin (BD Biosciences)+20 μg/ml streptavidin (Sigma-Aldrich) for 2 minutes. Signaling was stopped by addition of 20% PFA to a final concentration of 2%, incubated at 37° C. for 15 minutes and resuspended in 100% ice-cold MeOH (directly from −80° C.). Cells were then placed on ice for 30 minutes and placed at −20° C. for storage. For analysis, cells were stained with B220-BV786, CD4-BV711, CD8-BV421, and/or pAKT-Alexa Fluor 647 (BD Biosciences), pPLCγ-PE (BD Biosciences), pBTK-BV421 (BD Biosciences) pSyk/Zap70-PE (BD Biosciences) at room temperature for 1 hour. Cells were washed 3 times and samples were acquired in triplicate on an LSR Fortessa X-20 (BD) with analysis using FlowJo software.

The subject of assay [3] is CD4 T cells. Description: calcium mobilization of CD4 T cells after TCR aggregation. To be noted: 15 nM idelalisib, biotin-anti-CD3 and avidin. The assay is classed as cell-based, mouse. The procedure: For measurements of intracellular free calcium concentration ([Ca^2+]i), RBC-depleted single-cell suspended splenocytes were simultaneously stained with CD8-PE (BD Biosciences), CD4-APC (BioLegend) or B220-PE and loaded with Indo-1 acetoxymethyl (Molecular Probes), as described previously (Gauld, et al., Nat Immunol 6: 1160-1167). For analysis of ([Ca^2+]i), cells were suspended at 10×10^6 cells/ml in warm IMDM+2% FBS in a 500 ul volume. […] Mean relative ([Ca^2+]i) was monitored over time using an LSR Fortessa X-20 (BD) with analysis using FlowJo software.
Because a therapeutic effect of the inhibitor on VH125.NOD disease progression and survival was observed, reduction in autoantibody responses in PTEN^−/+×SHIP-1^−/+ cells, yet equivalent autoantibody responses by SHP-1^−/− and MD4 B cells in mice receiving 0.9375 mg/kg idelalisib-containing chow, we chose to focus our analysis on effects of this dose on T cell function. […] To analyze in vivo CD4 T cell responses, OT-II CD4 T cells were adoptively transferred into congenically mismatched recipients and immunized with OVA+P:IC as represented diagrammatically in FIG. 6C. […] The transferred OT-II cells that proliferated most underwent the greatest upregulation of CD44 (FIG. 6D).

In assay [4] the test system is OT-II CD4 T cells. Description: OT-II CD4 T cell adoptive transfer, response to OVA+P:IC immunization. The assay is classed as in vivo, mouse. The settings on record: 0.9375 mg/kg chow vs vehicle control, five days post-immunization. The method, then:
2 hours before adoptive transfer, C57BL/6 recipient mice received 200 rads irradiation. […] B cells from donor mice were isolated via depletion of CD43+ cells with anti-CD43-conjugated magnetic beads (MACS anti-mouse CD43; Miltenyi Biotec). Alternatively, CD4+ T cells were isolated via CD4 positive selection (MACS anti-mouse CD4 (L3T4) Miltenyi Biotec). Resultant populations were >97% pure based on flow cytometric analyses. Donor B cells were labeled with either CellTrace Violet (Molecular Probes) or CFSE (Molecular Probes) at 5 μM for 5 minutes at room temperature prior to transfer. Donor CD4 T cells were labeled with CFSE (Molecular Probes) at 5 μM for 5 minutes at room temperature prior to transfer. 1-2×10^6 donor cells in 200 μl PBS were adoptively transferred via IV injection. 24 hours post transfer, tamoxifen was administered to activate Cre. Tamoxifen (Sigma-Aldrich) was dissolved in 100% corn oil (Sigma-Aldrich) at 20 mg/ml. Recipient mice were injected IP with 100 μl (2 mg) on two consecutive days.
Diet dose (DD) is calculated by multiplying the single daily dose (SD) by the body weight of a mouse (BW) and dividing that by the daily food intake (FI) [DD=(SD×BW)/FI].
For VH125.NOD experiments animals are placed on control chow immediately after weaning. […]

In the case of `CC[C@H](Nc1ncnc2nc[nH]c12)c1nc2cccc(F)c2c(=O)n1-c1ccccc1` [idelalisib, 5-fluoro-3-phenyl-2-[(1S)-1-(7H-purin-6-ylamino)propyl]-4(3H)-quinazolinone], the “disease progression (blood glucose levels and visible signs of disease)” value in assay [1] (0.9375 mg/kg idelalisib chow from pre-diabetic blood glucose readings) is on record as “significantly delayed”. Also, the survival entry in assay [1] (0.9375 mg/kg idelalisib chow) is reported as “extended”. Also, the “phosphorylation of BTK” value in assay [2] is given as “significantly reduced”. Moreover, the “calcium mobilization of CD4 T cells” value in assay [3] was “failed to inhibit”. Further, in assay [4], the “proliferation (CFSE) of OT-II T cells” value is on record as “equivalent levels” and the “upregulation of the activation marker CD44 on OT-II T cells” value is recorded as “equivalent levels”.

The values above are taken from patent US11701361B2, “p110-delta inhibitors treat and prevent autoimmunity while sparing the ability to mount an immune response to exogenous immunogens” (THE REGENTS OF THE UNIVERSITY OF COLORADO, priority 2018, dated 2023).
